Source: article PMC11359809, “Probing the molecular basis for signal transduction through the Zinc-Activated Channel (ZAC)” (Biochemical pharmacology, 2021)
Where a chain is given by its changes, count along the chain named.

What was measured:
WT m5-HT3AR = target: T1, WT m5-HT3AR (Mus musculus, UniProt P23979); assay: TEVC in Xenopus oocytes expressing WT m5-HT3AR; format: cell-based; settings: 5-HT 30 μM
T1 construct: expressed in transfected cells; host or cells: Xenopus oocytes injected with cRNA (pUNIV vector)
T1 sequence (P23979 24-489): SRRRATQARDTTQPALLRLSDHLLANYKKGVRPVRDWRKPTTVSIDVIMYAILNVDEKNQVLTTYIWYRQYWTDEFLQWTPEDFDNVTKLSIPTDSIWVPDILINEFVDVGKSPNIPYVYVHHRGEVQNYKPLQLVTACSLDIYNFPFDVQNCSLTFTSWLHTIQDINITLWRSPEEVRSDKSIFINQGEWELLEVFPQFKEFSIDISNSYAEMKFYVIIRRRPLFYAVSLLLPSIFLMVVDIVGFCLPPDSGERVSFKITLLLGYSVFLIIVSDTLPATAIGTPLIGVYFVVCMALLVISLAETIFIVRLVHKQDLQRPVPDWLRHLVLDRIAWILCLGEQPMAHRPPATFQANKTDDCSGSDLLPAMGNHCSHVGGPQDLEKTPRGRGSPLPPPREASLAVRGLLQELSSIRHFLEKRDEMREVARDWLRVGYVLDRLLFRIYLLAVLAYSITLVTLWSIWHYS
Experimental: (§1) The recordings were performed at room temperature.
(§2) Analysis of the data from the TEVC recordings were performed using Clampfit software version 10.5 (Molecular Devices, Crawley, UK) and GraphPad Prism version 7.0c (GraphPad Software, La Jolla, CA). Unless otherwise stated, the inward currents induced by agonists in oocytes were normalized to the maximal response elicited by a specific agonist (agonist Imax) on each oocyte. Concentration-response and concentration-inhibition curves were fitted in GraphPad Prism by nonlinear regression using the equation for sigmoidal dose-response with variable slope. Each data point represents the mean ± S.E.M. value of recordings performed on at least five oocytes in total from at least two different batches. For the data where statistical analysis was performed, a one-way ANOVA was used. The null hypothesis was rejected at P < 0.05, and the differences between the means were analyzed by Tukey’s multiple comparisons test.

ZAC^L9′T = target: T2, ZAC^L9′T (Homo sapiens, UniProt Q401N2, A152T/L270T); assay: TEVC in oocytes, ZAC L9′T mutant; format: cell-based; settings: agonist; n = 6
T2 construct: expressed in transfected cells; host or cells: Xenopus oocytes (cRNA injection, pUNIV vector)
T2 sequence (Q401N2 26-412 A152T/L270T): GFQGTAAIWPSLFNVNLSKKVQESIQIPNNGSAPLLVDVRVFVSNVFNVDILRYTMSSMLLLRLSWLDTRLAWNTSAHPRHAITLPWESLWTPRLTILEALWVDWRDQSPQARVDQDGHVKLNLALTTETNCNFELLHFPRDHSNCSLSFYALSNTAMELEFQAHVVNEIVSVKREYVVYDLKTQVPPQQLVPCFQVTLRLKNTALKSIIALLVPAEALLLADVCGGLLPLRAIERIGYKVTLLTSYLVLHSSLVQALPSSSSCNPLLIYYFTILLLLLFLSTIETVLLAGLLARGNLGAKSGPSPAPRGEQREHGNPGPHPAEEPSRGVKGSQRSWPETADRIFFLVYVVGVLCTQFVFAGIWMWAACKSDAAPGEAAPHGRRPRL
Experimental: as §1, §2

ZAC^D118A = target: T3, ZAC^D118A (Homo sapiens, UniProt Q401N2, A152T/D142A); assay: TEVC in oocytes, ZAC D118A mutant; format: cell-based
T3 construct: expressed in transfected cells; host or cells: Xenopus oocytes injected with cRNA (pUNIV vector)
T3 sequence (Q401N2 26-412 D142A/A152T): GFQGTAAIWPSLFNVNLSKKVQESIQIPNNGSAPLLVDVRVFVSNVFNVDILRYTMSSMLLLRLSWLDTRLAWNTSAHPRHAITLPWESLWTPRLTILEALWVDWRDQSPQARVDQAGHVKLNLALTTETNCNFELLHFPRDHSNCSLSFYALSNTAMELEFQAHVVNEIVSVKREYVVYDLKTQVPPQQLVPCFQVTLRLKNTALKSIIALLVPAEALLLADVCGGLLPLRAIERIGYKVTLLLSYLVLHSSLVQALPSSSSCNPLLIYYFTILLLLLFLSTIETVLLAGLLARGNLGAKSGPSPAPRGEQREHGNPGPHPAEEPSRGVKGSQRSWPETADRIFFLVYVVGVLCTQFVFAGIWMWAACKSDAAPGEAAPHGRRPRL
Experimental: as §1
as §2, with “For the data where statistical analysis was performed, a one-way ANOVA was used.” left out
(§3) The putative involvement of candidate residues in Clusters 1, 2, 3 and 4 in Zn^2+ binding to ZAC was investigated in by an elaborate alanine mutagenesis scanning. […] The determined IpH 4.0 value was used in part as a control and in part to enable the distinction of ZAC mutants non-responsive to Zn^2+ due to elimination of their ability to bind the metal ion from those where the mutation had eliminated cell surface expression and/or disrupted overall functionality of the receptor complex. […]

ZAC^D105A/D108A = target: T4, ZAC^D105A/D108A (Homo sapiens, UniProt Q401N2, A152T/D129A/D132A); assay: TEVC in oocytes, ZAC D105A/D108A mutant; format: cell-based; settings: 10 mM Zn^2+; data not shown
T4 construct: expressed in transfected cells; host or cells: Xenopus oocytes injected with cRNA (pUNIV vector)
T4 sequence (Q401N2 26-412 D129A/D132A/A152T): as the sequence (Q401N2 26-412 D142A/A152T) above, with D104A, D107A, A117D counted along it
Experimental: as §1
as §2, with “For the data where statistical analysis was performed, a one-way ANOVA was used.” left out
as §3

ZAC/hα1-Gly = assay: TEVC in oocytes expressing ZAC/hα1-Gly chimera; format: cell-based, human
Experimental: as §1, §2
(§4) Initially, we constructed four chimeric subunits fusing the ZAC ECD or TMD-ICD with the complementary domains from either the m5-HT3A or the hα1 GlyR subunit: ZAC/m5-HT3A, m5-HT3A/ZAC, ZAC/hα1-Gly and hα1-Gly/ZAC (Fig. 1A). […] (Fig. 1A).

ZAC^H120L = assay: TEVC in oocytes, ZAC H120L mutant; format: cell-based, human; settings: agonist
Experimental: as §1
as §2, with “For the data where statistical analysis was performed, a one-way ANOVA was used.” left out
as §3

hα1-Gly/ZAC = assay: TEVC in oocytes expressing hα1-Gly/ZAC chimera; format: cell-based, human; settings: 10 mM Zn^2+; outward current; n = 5
Experimental: as §1, §2, §4

ZAC^L9′A = target: T5, ZAC^L9′A (Homo sapiens, UniProt Q401N2, A152T/L270A); assay: TEVC in oocytes, ZAC L9′A mutant; format: cell-based; settings: agonist; n = 7
T5 construct: expressed in transfected cells; host or cells: Xenopus oocytes injected with cRNA (pUNIV vector)
T5 sequence (Q401N2 26-412 A152T/L270A): T2 sequence (Q401N2 26-412 A152T/L270T) with T245A
Experimental: as §1, §2

ZAC^H79A/H120F = target: T6, ZAC^H79A/H120F (Homo sapiens, UniProt Q401N2, A152T/H103A/H144F); assay: TEVC in oocytes, ZAC H79A/H120F mutant; format: cell-based; settings: parallel recordings, same oocyte batches
T6 construct: expressed in transfected cells; host or cells: Xenopus oocytes (cRNA injection, pUNIV vector)
T6 sequence (Q401N2 26-412 H103A/H144F/A152T): as the sequence (Q401N2 26-412 D142A/A152T) above, with H78A, A117D, H119F counted along it
Experimental: as §1
as §2, with “For the data where statistical analysis was performed, a one-way ANOVA was used.” left out
as §3

ZAC^E24A = target: T7, ZAC^E24A (Homo sapiens, UniProt Q401N2, A152T/E48A); assay: TEVC in oocytes, ZAC E24A mutant; format: cell-based; settings: agonist; n = 5
T7 construct: expressed in transfected cells; host or cells: Xenopus oocytes injected with cRNA (pUNIV vector)
T7 sequence (Q401N2 26-412 E48A/A152T): as the sequence (Q401N2 26-412 D142A/A152T) above, with E23A, A117D counted along it
Experimental: as §1
as §2, with “For the data where statistical analysis was performed, a one-way ANOVA was used.” left out
as §3

ZAC^E89A = target: T8, ZAC^E89A (Homo sapiens, UniProt Q401N2, A152T/E113A); assay: TEVC in oocytes, ZAC E89A mutant; format: cell-based; settings: agonist; n = 7
T8 construct: expressed in transfected cells; host or cells: Xenopus oocytes injected with cRNA (pUNIV vector)
T8 sequence (Q401N2 26-412 E113A/A152T): as the sequence (Q401N2 26-412 D142A/A152T) above, with E88A, A117D counted along it
Experimental: as §1
as §2, with “For the data where statistical analysis was performed, a one-way ANOVA was used.” left out
as §3

[1] = sustained (4 min) application of 30 μM Zn^2+

## [Cl-].[Cl-].[Zn+2] [Zn^2+, ZnCl2]
WT m5-HT3AR
  modulation of 5-HT (EC80)-evoked currents: potentiated the 5-HT-induced response through WT m5-HT3AR at low-micromolar concentrations and inhibited it at higher concentrations
ZAC^L9′T
  EC50: 66 µM
  nH ± S.E.M. (Hill slope): 0.7 ± 0.4
  pEC50 ± S.E.M.: 4.18 ± 0.34
ZAC^D118A
  agonist properties compared to WT ZAC: did not differ substantially
ZAC^D105A/D108A
  agonist responsiveness: non-responsive
ZAC/hα1-Gly; 30 μM Zn^2+, n = 11
  Imax (current amplitude evoked by saturating agonist): 0.24 ± 0.03 μA
ZAC/hα1-Gly; agonist, n = 10
  nH ± S.E.M. (Hill slope): 1.6 ± 0.4
  pEC50 ± S.E.M.: 5.36 ± 0.09
ZAC/hα1-Gly; compared to WT ZAC
  left-shift of concentration-response relationship (higher agonist potency): ~100 fold
ZAC/hα1-Gly; [1]
  Iresidual, 4 min: 63 ± 6 % of Ipeak
  Δtpeak-to-plateau: 56 ± 3.8 s
  Δtstart-to-peak: 10 ± 1.9 s
ZAC^H120L
  fitted EC50 relative to WT ZAC (higher): ~ 3 fold
hα1-Gly/ZAC
  I10 mM Zn2+ ± S.E.M.: 0.0298 ± 0.0058 μA
ZAC^L9′A
  EC50: 230 µM
  nH ± S.E.M. (Hill slope): 1.2 ± 0.2
  pEC50 ± S.E.M.: 3.64 ± 0.08
ZAC^H79A/H120F
  ability to elicit ZAC signalling compared to WT ZAC: did not appear to impair
ZAC^E24A
  EC50: 71 µM
  pEC50 ± S.E.M.: 4.15 ± 0.04
ZAC^E89A
  EC50: 160 µM
  pEC50 ± S.E.M.: 3.79 ± 0.07
